Inhibition data for 24 molecules are collected here from patent US9624170B2, “4-(piperrazin-1-yl)-pyrrolidin-2-one compounds as monoacylglycerol lipase (MAGL) inhibitors” (TAKEDA PHARMACEUTICAL COMPANY LIMITED, priority 2013, dated 2017).

This test concerns the target T1, human MAGL (His-hMAGL) (Homo sapiens, UniProt Q99685).
T1 construct: made in house; host or cells: Escherichia coli BL21(DE3)
T1 sequence (Q99685 1-303): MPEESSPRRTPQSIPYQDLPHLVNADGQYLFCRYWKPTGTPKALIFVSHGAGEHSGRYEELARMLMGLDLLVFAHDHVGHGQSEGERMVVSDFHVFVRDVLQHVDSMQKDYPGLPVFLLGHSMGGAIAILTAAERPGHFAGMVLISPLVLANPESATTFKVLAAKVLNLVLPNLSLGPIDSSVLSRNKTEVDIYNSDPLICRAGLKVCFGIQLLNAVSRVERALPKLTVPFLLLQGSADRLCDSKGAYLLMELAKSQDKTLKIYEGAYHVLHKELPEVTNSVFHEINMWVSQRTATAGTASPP
The experiment in a line: Measurement of MAGL inhibitory activity by mass spectrometry. Conditions: MAGL inhibitory rate, test compound 10 μM, His-hMAGL, substrate 2-arachidonylglycerol, RapidFire-mass spectrometry. The class given is biochemical. The method in brief: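 His-tagged human MAGL was reacted with 150 μM 2-arachidonylglycerol substrate (stock, added by 5 μL) for 10 min at room temperature, then stopped with formic acid. Arachidonic acid product was quantified by RapidFire–triple-quadrupole MS in negative SRM mode, corrected by arachidonic acid-d8, and converted to percent inhibition.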
On to `COc1cc(C(F)(F)F)ccc1-c1cccc(N2CC(N3CCN(C(=O)c4nccs4)CC3)CC2=O)c1` (stereo not drawn) [Example 310, 1-(2′-methoxy-4′-(trifluoromethyl)biphenyl-3-yl)-4-(4-(1,3-thiazol-2-ylcarbonyl)piperazin-1-yl)pyrrolidin-2-one], for which the inhibition at 10 µM is 98%.
With `O=C(c1nccs1)N1CCN(C2CC(=O)N(c3cccc(-c4cccc5ccccc45)c3)C2)CC1` (stereo not drawn) [Example 311, 1-(3-(1-naphthyl)phenyl)-4-(4-(1,3-thiazol-2-ylcarbonyl)piperazin-1-yl)pyrrolidin-2-one], the inhibition at 10 µM came to 103%.
Regarding `Cc1nn(C)c(C)c1-c1cccc(N2CC(N3CCN(C(=O)c4nccs4)CC3)CC2=O)c1` (stereo not drawn) [Example 312], the inhibition at 10 µM stood at 101%.
With `O=C(c1nccs1)N1CCN(C2CC(=O)N(c3cccc(-c4cccc5ccsc45)c3)C2)CC1` (stereo not drawn) [Example 313, 1-(3-(1-benzothiophen-7-yl)phenyl)-4-(4-(1,3-thiazol-2-ylcarbonyl)piperazin-1-yl)pyrrolidin-2-one] the figure was 101%; with `O=C(c1nccs1)N1CCN(C2CC(=O)N(c3cccc(-c4cccc5c4OCC5)c3)C2)CC1` (stereo not drawn) [Example 314, 1-(3-(2,3-dihydro-1-benzofuran-7-yl)phenyl)-4-(4-(1,3-thiazol-2-ylcarbonyl)piperazin-1-yl)pyrrolidin-2-one], 104%.
For the molecule `O=C(c1nccs1)N1CCN(C2CC(=O)N(c3cccc(-c4ccc(F)c(C(F)(F)F)c4)c3)C2)CC1` (stereo not drawn) [Example 315, 1-(4′-fluoro-3′-(trifluoromethyl)biphenyl-3-yl)-4-(4-(1,3-thiazol-2-ylcarbonyl)piperazin-1-yl)pyrrolidin-2-one], the inhibition at 10 µM was determined as 101%.
In the case of `N#Cc1ccc(-c2cccc(N3CC(N4CCN(C(=O)c5nccs5)CC4)CC3=O)c2)c(F)c1` (stereo not drawn) [Example 316, 2-fluoro-3′-(2-oxo-4-(4-(1,3-thiazol-2-ylcarbonyl)piperazin-1-yl)pyrrolidin-1-yl)biphenyl-4-carbonitrile], the inhibition at 10 µM came to 97%.
`O=C(c1nccs1)N1CCN(C2CC(=O)N(c3cccc(-c4cccc5cn[nH]c45)c3)C2)CC1` (stereo not drawn) [Example 317, 1-(3-(1H-indazol-7-yl)phenyl)-4-(4-(1,3-thiazol-2-ylcarbonyl)piperazin-1-yl)pyrrolidin-2-one]: the inhibition at 10 µM is 99%.
The value for `O=C(c1nccs1)N1CCN(C2CC(=O)N(c3cccc(-c4cccc5[nH]ncc45)c3)C2)CC1` (stereo not drawn) [Example 318, 1-(3-(1H-indazol-4-yl)phenyl)-4-(4-(1,3-thiazol-2-ylcarbonyl)piperazin-1-yl)pyrrolidin-2-one] was 103%.
Consider `NC(=O)Cc1cccc(-c2cccc(N3CC(N4CCN(C(=O)c5nccs5)CC4)CC3=O)c2)c1` (stereo not drawn) [Example 319, 2-(3′-(2-oxo-4-(4-(1,3-thiazol-2-ylcarbonyl)piperazin-1-yl)pyrrolidin-1-yl)biphenyl-3-yl)acetamide], for which the inhibition at 10 µM is 102%.
Consider `O=C(c1nccs1)N1CCN(C2CC(=O)N(c3cccc(-c4cccc5cc[nH]c45)c3)C2)CC1` (stereo not drawn) [Example 320, 1-(3-(1H-indol-7-yl)phenyl)-4-(4-(1,3-thiazol-2-ylcarbonyl)piperazin-1-yl)pyrrolidin-2-one], for which the inhibition at 10 µM amounted to 100%.
With `O=C(c1cccc(-c2cccc(N3CC(N4CCN(C(=O)c5nccs5)CC4)CC3=O)c2)c1)N1CCCC1` (stereo not drawn) [Example 321, 1-(3′-(pyrrolidin-1-ylcarbonyl)biphenyl-3-yl)-4-(4-(1,3-thiazol-2-ylcarbonyl)piperazin-1-yl)pyrrolidin-2-one] the figure was 102%; with `Cc1cc(C#N)ccc1-c1cccc(N2CC(N3CCN(C(=O)c4nccs4)CC3)CC2=O)c1` (stereo not drawn) [Example 322, 2-methyl-3′-(2-oxo-4-(4-(1,3-thiazol-2-ylcarbonyl)piperazin-1-yl)pyrrolidin-1-yl)biphenyl-4-carbonitrile], 103%; with `COc1ccsc1-c1cccc(N2CC(N3CCN(C(=O)c4nccs4)CC3)CC2=O)c1` (stereo not drawn) [Example 323, 1-(3-(3-methoxy-2-thienyl)phenyl)-4-(4-(1,3-thiazol-2-ylcarbonyl)piperazin-1-yl)pyrrolidin-2-one], 100%.
Take `Cc1c(-c2cccc(N3CC(N4CCN(C(=O)c5nccs5)CC4)CC3=O)c2)cnn1C` (stereo not drawn) [Example 324, 1-(3-(1,5-dimethyl-1H-pyrazol-4-yl)phenyl)-4-(4-(1,3-thiazol-2-ylcarbonyl)piperazin-1-yl)pyrrolidin-2-one]: the inhibition at 10 µM came out at 101%.
In the case of `Cc1nn(C)cc1-c1cccc(N2CC(N3CCN(C(=O)c4nccs4)CC3)CC2=O)c1` (stereo not drawn) [Example 325, 1-(3-(1,3-dimethyl-1H-pyrazol-4-yl)phenyl)-4-(4-(1,3-thiazol-2-ylcarbonyl)piperazin-1-yl)pyrrolidin-2-one], the inhibition at 10 µM was 101%.
For the molecule `Cn1ncc2c(-c3cccc(N4CC(N5CCN(C(=O)c6nccs6)CC5)CC4=O)c3)cccc21` (stereo not drawn) [Example 326, 1-(3-(1-methyl-1H-indazol-4-yl)phenyl)-4-(4-(1,3-thiazol-2-ylcarbonyl)piperazin-1-yl)pyrrolidin-2-one], the inhibition at 10 µM was determined as 105%.
With `O=C(c1nccs1)N1CCN(C2CC(=O)N(c3cccc(-c4c[nH]nc4C(F)(F)F)c3)C2)CC1` (stereo not drawn) [Example 327, 4-(4-(1,3-thiazol-2-ylcarbonyl)piperazin-1-yl)-1-(3-(3-(trifluoromethyl)-1H-pyrazol-4-yl)phenyl)pyrrolidin-2-one] the figure was 100%; with `O=C(c1nccs1)N1CCN(C2CC(=O)N(c3cccc(-c4coc5ccccc45)c3)C2)CC1` (stereo not drawn) [Example 328, 1-(3-(1-benzofuran-3-yl)phenyl)-4-(4-(1,3-thiazol-2-ylcarbonyl)piperazin-1-yl)pyrrolidin-2-one], 102%; with `O=C(c1nccs1)N1CCN(C2CC(=O)N(c3cccc(-c4cccc5ccoc45)c3)C2)CC1` (stereo not drawn) [Example 329, 1-(3-(1-benzofuran-7-yl)phenyl)-4-(4-(1,3-thiazol-2-ylcarbonyl)piperazin-1-yl)pyrrolidin-2-one], 104%.
The value for `O=C(c1nccs1)N1CCN(C2CC(=O)N(c3cccc(-c4c(F)c(F)c(F)c(F)c4F)c3)C2)CC1` (stereo not drawn) [Example 330, 1-(2′,3′,4′,5′,6′-pentafluorobiphenyl-3-yl)-4-(4-(1,3-thiazol-2-ylcarbonyl)piperazin-1-yl)pyrrolidin-2-one] was 101%.
With `O=C(c1nccs1)N1CCN(C2CC(=O)N(c3cccc(-c4cnc5ccccn45)c3)C2)CC1` (stereo not drawn) [Example 331, 1-(3-(imidazo[1,2-a]pyridin-3-yl)phenyl)-4-(4-(1,3-thiazol-2-ylcarbonyl)piperazin-1-yl)pyrrolidin-2-one] the figure was 101%; with `O=C(c1nccs1)N1CCN(C2CC(=O)N(c3cccc(-c4n[nH]c5ccccc45)c3)C2)CC1` (stereo not drawn) [Example 332, 1-(3-(1H-indazol-3-yl)phenyl)-4-(4-(1,3-thiazol-2-ylcarbonyl)piperazin-1-yl)pyrrolidin-2-one], 100%; with `Cn1ccnc1-c1cccc(N2CC(N3CCN(C(=O)c4nccs4)CC3)CC2=O)c1` (stereo not drawn) [Example 333, 1-(3-(1-methyl-1H-imidazol-2-yl)phenyl)-4-(4-(1,3-thiazol-2-ylcarbonyl)piperazin-1-yl)pyrrolidin-2-one], 83%.

In general, inhibition refers to the relative decrease from the control value, in per cent.
